Experimental data from PubChem BioAssay AID686957 (The Scripps Research Institute Molecular Screening Center, 2013).
The source made the active and inactive calls. How the calls were made is not given here.

target: T-cell receptor (TCR)-CD3 interaction, human (TCR alpha chain TRAV4); test: IC50 for blocking TCR-CD3 binding – biochemical, fluorescence, TAMRA-labeled TCR probe, dose response (AID 686957)

Row | SMILES | IC50
1 | Cc1ccc(S(=O)(=O)N2CCC(C(=O)NNC(=O)c3ccccc3O)CC2)cc1 | > 94.1 µM (inactive)
2 | Cc1ccccc1C(=O)NNC(=S)NC(=O)c1cccnc1 | > 94.1 µM (inactive)
3 | Cc1ccc(O)c(/C=N/NC(=O)COc2ccc3c(C)cc(=O)oc3c2)c1 | > 94.1 µM (inactive)
4 | COc1ccc(C(=O)NNC(=S)NC(=O)c2cccs2)cc1 | > 94 µM (inactive)
5 | COc1cc(Br)cc2cc(C(=O)N3CCN(C(=O)c4ccco4)CC3)c(=O)oc12 | > 94.1 µM (inactive)
6 | Cc1cc(Br)cc(/C=N/NC(=O)c2ccc3c(c2)OCO3)c1O | > 94.1 µM (inactive)
7 | COc1ccc(C)cc1NC(=O)NNC(=O)c1cc2ccccc2cc1O | > 94.1 µM (inactive)
8 | O=C(NNC(=O)c1cc2ccccc2cc1O)Nc1ccc(F)cc1F | > 94.1 µM (inactive)
9 | Cc1cc(C)c2c(N)c(C(=O)NN)sc2n1 | > 94.1 µM (inactive)
10 | COc1cc(OC)cc(C(=O)N/N=C/c2ccc(OC)c(COc3ccc4ccccc4c3)c2)c1 | > 94.1 µM (inactive)
11 | Oc1ccc(-c2cn3c(n2)SCC3)cc1O | inactive
12 | O=C(Cc1nnc(NC(=O)c2ccccc2)s1)N/N=C\c1ccc(O)c(O)c1 | > 94.1 µM (inactive)
13 | O=C(NNC(=O)c1cc(Cl)ccc1O)c1cccc(S(=O)(=O)N2CCOCC2)c1 | > 94.1 µM (inactive)
14 | NNC(=O)c1nc[nH]c1C(=O)Nc1ccccn1 | > 94.2 µM (inactive)
15 | COc1cc([N+](=O)[O-])cc(/C=N/NC(=O)c2cc(C)nc3ccccc23)c1O | > 94.1 µM (inactive)
16 | O=C1NC(=S)S/C1=C\C=C\c1ccc([N+](=O)[O-])o1 | > 94.1 µM (inactive)
17 | COc1ccc(C(=O)NC(=S)NNC(=O)c2ccc(O)cc2)cc1[N+](=O)[O-] | > 94.1 µM (inactive)
18 | CCn1c(SCC(=O)c2ccc(O)c(O)c2)nnc1-c1ccccc1OC | > 94.1 µM (inactive)
19 | O=C(N/N=C/c1cc([N+](=O)[O-])cc([N+](=O)[O-])c1O)/C(=C\c1cccs1)NC(=O)c1ccccc1 | > 94.1 µM (inactive)

Row | SMILES | IC50
20 | O=C(N/N=C/c1cc(Br)ccc1O)c1cccc(N2CCCC2=O)c1 | > 94.1 µM (inactive)
21 | Cc1nc(S/C(=C\c2ccc(-c3ccc(C(=O)O)c(Cl)c3)o2)C(=O)O)n[nH]1 | > 94.1 µM (inactive)
22 | Oc1ccc(C[C@H]2NCCc3cc(O)c(O)cc32)cc1O | > 94.1 µM (inactive)
23 | O=C(O)c1c[nH]c2c([N+](=O)[O-])cccc2c1=O | > 31.3 µM (inactive)
24 | Cc1ccc(NC(=O)NNC(=O)c2cc3ccccc3cc2O)cc1 | > 94.1 µM (inactive)
25 | C/C(=N\NC(=O)c1nnn(-c2nonc2N)c1-c1ccccc1)c1ccccc1O | > 94.1 µM (inactive)
26 | CCc1n[nH]c(=S)n1/N=C/c1cc(OC)cc([N+](=O)[O-])c1O | inactive
27 | CC(C)(C)c1ccc(C(=O)NCC(=O)NNC(=O)c2ccccc2O)cc1 | > 94.1 µM (inactive)
28 | CCc1ccc(NC(=O)NNC(=O)c2ccc3ccccc3c2O)cc1 | > 94.1 µM (inactive)
29 | COc1ccc2nc(C)cc(SCC(=O)N/N=C/c3ccc(O)c(O)c3)c2c1 | > 94.1 µM (inactive)
30 | CCCCCC(=O)NC(=S)NC1C2CC3CC(C2)CC1C3 (stereo not drawn) | > 94.1 µM (inactive)
31 | COC(=O)c1cc(O)c(O)c(O)c1 | > 94.3 µM (inactive)
32 | O=C(NNC(=O)C1CCN(S(=O)(=O)c2ccccc2C(F)(F)F)CC1)c1ccccc1O | > 94.1 µM (inactive)
33 | COc1ccc(C(=O)NNC(=S)NC(=O)c2cccnc2)cc1 | > 94.1 µM (inactive)
34 | Cc1ccn2cc(-c3ccc(O)c(O)c3)nc2c1 | > 94.1 µM (inactive)
35 | CCOc1ccc(Nc2ccc(N)c(S(=O)(=O)O)c2)cc1 | > 94.1 µM (inactive)
36 | CNC(=S)NNC(=O)c1cccn(Cc2ccc(Cl)cc2Cl)c1=O | > 94.1 µM (inactive)
37 | CCn1c(C)nc2cc(C(=O)NNC(=S)NC(=O)c3ccccc3)ccc21 | > 94.1 µM (inactive)
38 | O=C(NNC(=O)c1c(O)c2ccccc2[nH]c1=O)c1ccccc1 | > 94.1 µM (inactive)
